# Source: patent publication US20250170130A1, “MODULATORS OF MYC FAMILY PROTO-ONCOGENE PROTEIN” (Nalo Therapeutics, priority 2022, published 2025)
# How the values were obtained:
# MycC = target: T1, MycC (Homo sapiens, UniProt P01106); experiment: Degradation of MycC protein in L363 cells, JESS/Western blot of lysates; format: cell-based; settings: L-363, 24 h, L-363 cells, 24 h; for Dmax at 0.5 µM: read-out: % Degradation of MycC (L-363) 24 h, 0.5 μM; for Dmax at 1 µM: read-out: % Degradation of MycC (L-363) 24 h, 1 μM; for Dmax at 3 µM: read-out: % Degradation of MycC (L-363) 24 h, 3 μM; for Dmax at 6 µM: read-out: % Degradation of MycC (L-363) 24 h, 6 μM
# T1 construct: endogenous in cells; host or cells: L363
# Description: For L363 cells (suspension), 1E6 cells were plated into each well of a 6 well plate. For SK-N-BE(2) cells (adherent), 5E5 cells were plated into each well of a 6 well dish. […] All compounds were diluted to 10 mM in DMSO. Cells were treated with the compound for 24 hrs, then for both cell types, media containing cells were removed from wells into a 15 ml centrifuge tube, and remaining adherent SK-N-BE(2) cells were also scraped from the wells into the appropriate tubes. Tubes were centrifuged, cells were washed with PBS then re-centrifuged to pellet cells. A RIPA buffer cocktail was added to the cells on ice for 5 mins. Cell lysates were clarified by centrifugation and stored at −80 degrees until required. BCA assay was performed on each lysate to determine the protein concentration.
# (§1) Once an appropriate lysate concentration and antibody concentration was determined, samples were screened in the JESS technology (Protein Simple, San Jose, CA—https://www.proteinsimple.com/jess.html).
# (§2) Target protein antibodies (n-myc and c-myc) were detected in the chemi-luminescence channel and loading controls (tubulin and GAPDH) were detected using a Near Infra Red (NIR) labeled secondary antibody.
# For SK-N-EB2 adherent cells, 5E5 cells in 1.9 mls media were plated into 6 well dishes and incubated for 24 hrs. […] Cells were scrapped off the plate, centrifuged, washed with PBS, centrifuged, then a RIPA buffer cocktail added to the cells (100 ul), centrifuged and stored at −80 for later analysis. For L363 suspension cells, 1E6 cells were plated into […] (950 ul media) and incubated for 24 hrs. […] Cells were aspirated into tubes, centrifuged, washed with PBS, centrifuged, then a RIPA buffer cocktail added to the cells (100 ul), centrifuged and stored at −80 for later analysis.
# (§3) For Western blot, a BCA (total protein) assay was run on all samples, these were then run in batches of 5 compounds plus control (DMSO) on each Western blot run—n-myc and c-myc were run in separate experiments in the chemiluminescence channel. Both tubulin and GAPDH were run as loading controls in all lanes in the near infra red channel.
# MycN = target: T2, MycN (Homo sapiens, UniProt P04198); experiment: Degradation of MycN protein in SK-N-BE(2) cells, JESS/Western blot of lysates; format: cell-based; settings: SKNBE2, 24 h, SKNBE2 cells, 24 h; for Dmax at 1 µM: read-out: % Degradation of MycN (SKNBE2) 24 h, 1 μM; for Dmax at 3 µM: read-out: % Degradation of MycN (SKNBE2) 24 h, 3 μM; for Dmax at 6 µM: read-out: % Degradation of MycN (SKNBE2) 24 h, 6 μM; for Dmax at 0.5 µM: read-out: % Degradation of MycN (SKNBE2) 24 h, 0.5 μM
# T2 construct: endogenous in cells; host or cells: SK-N-BE(2)
# T2 sequence (P04198 1-464): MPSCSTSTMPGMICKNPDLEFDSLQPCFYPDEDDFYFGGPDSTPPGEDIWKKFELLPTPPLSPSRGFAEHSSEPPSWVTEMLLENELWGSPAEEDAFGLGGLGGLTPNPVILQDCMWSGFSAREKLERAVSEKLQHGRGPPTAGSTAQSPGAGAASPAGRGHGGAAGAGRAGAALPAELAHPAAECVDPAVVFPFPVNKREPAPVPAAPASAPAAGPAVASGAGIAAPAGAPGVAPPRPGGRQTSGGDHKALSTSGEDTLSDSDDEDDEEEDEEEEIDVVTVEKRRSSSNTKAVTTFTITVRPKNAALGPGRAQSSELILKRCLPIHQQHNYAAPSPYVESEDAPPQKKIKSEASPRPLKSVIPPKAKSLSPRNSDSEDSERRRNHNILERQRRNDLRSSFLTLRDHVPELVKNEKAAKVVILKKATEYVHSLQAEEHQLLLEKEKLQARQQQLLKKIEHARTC
# Description: For L363 cells (suspension), 1E6 cells were plated into each well of a 6 well plate. For SK-N-BE(2) cells (adherent), 5E5 cells were plated into each well of a 6 well dish. Cells were cultured for 24 hrs then treated with exemplary compounds at […] final assay concentrations plus DMSO control. All compounds were diluted to 10 mM in DMSO. Cells were treated with the compound for 24 hrs, then for both cell types, media containing cells were removed from wells into a 15 ml centrifuge tube, and remaining adherent SK-N-BE(2) cells were also scraped from the wells into the appropriate tubes. Tubes were centrifuged, cells were washed with PBS then re-centrifuged to pellet cells. A RIPA buffer cocktail was added to the cells on ice for 5 mins. Cell lysates were clarified by centrifugation and stored at −80 degrees until required. BCA assay was performed on each lysate to determine the protein concentration.
# as §1, §2
# For SK-N-EB2 adherent cells, 5E5 cells in 1.9 mls media were plated into 6 well dishes and incubated for 24 hrs. Exemplary compounds were added (100 ul, 1 in 20 dilution in media) to each well (final assay concentration 6, 3, 1 and […]) together with DMSO control wells and incubated for 24 hrs. Cells were scrapped off the plate, centrifuged, washed with PBS, centrifuged, then a RIPA buffer cocktail added to the cells (100 ul), centrifuged and stored at −80 for later analysis. For L363 suspension cells, 1E6 cells were plated into 24 well dishes (950 ul media) and incubated for 24 hrs. Exemplary compounds were added (50 ul, 1 in 20 dilution in media) to each well (final assay concentration 6, 3, 1 and […]) together with DMSO control wells and incubated for 24 hrs. Cells were aspirated into tubes, centrifuged, washed with PBS, centrifuged, then a RIPA buffer cocktail added to the cells (100 ul), centrifuged and stored at −80 for later analysis.
# as §3
# T1 sequence (P01106 whole entry): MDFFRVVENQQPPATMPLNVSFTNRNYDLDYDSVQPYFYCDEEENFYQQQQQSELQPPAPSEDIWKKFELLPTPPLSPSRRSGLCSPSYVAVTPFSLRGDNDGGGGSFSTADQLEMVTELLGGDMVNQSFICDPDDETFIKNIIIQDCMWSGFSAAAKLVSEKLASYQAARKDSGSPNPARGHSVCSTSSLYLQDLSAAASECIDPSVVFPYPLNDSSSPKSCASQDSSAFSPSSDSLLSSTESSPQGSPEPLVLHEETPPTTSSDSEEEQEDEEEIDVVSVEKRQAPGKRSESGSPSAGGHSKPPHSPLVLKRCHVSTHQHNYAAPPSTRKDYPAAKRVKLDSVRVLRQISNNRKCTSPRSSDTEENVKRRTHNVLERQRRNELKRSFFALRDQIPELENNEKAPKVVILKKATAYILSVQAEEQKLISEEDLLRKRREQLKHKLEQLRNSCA
Compound,Dmax at 0.5 µM (MycC) [%],Dmax at 1 µM (MycC) [%],Dmax at 3 µM (MycC) [%],Dmax at 6 µM (MycC) [%],Dmax at 1 µM (MycN) [%],Dmax at 3 µM (MycN) [%],Dmax at 6 µM (MycN) [%],Dmax at 0.5 µM (MycN) [%]
"NC[C@H]1CCCN(c2nccc(Nc3cc(C4CC4)[nH]n3)n2)C1 [Compound 29, 2-[(3R)-3-(Aminomethyl)-1-piperidyl]-N-(5-cyclopropyl-1H-pyrazol-3-yl)pyrimidin-4-amine]",20 to 49,50 to 79,80 to 100,80 to 100,80 to 100,80 to 100,80 to 100,80 to 100
"CNC[C@@H]1CCCN(c2nccc(Nc3cc(C4CC4)[nH]n3)n2)C1 [Compound 37, N-(5-cyclopropyl-1H-pyrazol-3-yl)-2-[(3S)-3-(methylaminomethyl)-1-piperidyl]pyrimidin-4-amine]",,< 20,< 20,,20 to 49,50 to 79,80 to 100,20 to 49
"CNCC12CC(C1)N(c1ncc(C)c(Nc3cc(C4CCCC4)[nH]n3)n1)C2 [Compound 182, N-(5-Cyclopentyl-1H-pyrazol-3-yl)-5-methyl-2-[4-(methylaminomethyl)-2-azabicyclo[2.1.1]hexan-2-yl]pyrimidin-4-amine]",,,,80 to 100,20 to 49,80 to 100,80 to 100,20 to 49
"c1cc(Nc2cc(C3CC3)[nH]n2)nc(N2CC3(CCCNC3)C2)n1 [Compound 105, N-(5-Cyclopropyl-1H-pyrazol-3-yl)-2-(2,8-diazaspiro[3.5]nonan-2-yl)pyrimidin-4-amine]",,,< 20,80 to 100,< 20,< 20,80 to 100,< 20
"CNC[C@H]1CCN(c2nccc(Nc3cc(C4CCCC4)[nH]n3)n2)C1 [Compound 35, N-(5-cyclopentyl-1H-pyrazol-3-yl)-2-[(3R)-3-(methylaminomethyl)pyrrolidin-1-yl]pyrimidin-4-amine]",,< 20,50 to 79,80 to 100,50 to 79,80 to 100,80 to 100,20 to 49
"CN1C[C@H]2CN(c3nccc(Nc4cc(C5CC5)[nH]n4)n3)C[C@H]21 [Compound 40, N-(5-Cyclopropyl-1H-pyrazol-3-yl)-2-[(1S,5S)-6-methyl-3,6-diazabicyclo[3.2.0]heptan-3-yl]pyrimidin-4-amine]",< 20,< 20,< 20,,,< 20,< 20,
"CN1CCCC2(C1)CN(c1nccc(Nc3cc(C4CC4)[nH]n3)n1)C2 [Compound 104, N-(5-cyclopropyl-1H-pyrazol-3-yl)-2-(8-methyl-2,8-diazaspiro[3.5]nonan-2-yl)pyrimidin-4-amine]",,< 20,,20 to 49,< 20,20 to 49,20 to 49,

# Continued, values first:
Dmax at 0.5 µM (MycC) [%],Dmax at 1 µM (MycC) [%],Dmax at 3 µM (MycC) [%],Dmax at 6 µM (MycC) [%],Dmax at 1 µM (MycN) [%],Dmax at 3 µM (MycN) [%],Dmax at 6 µM (MycN) [%],Dmax at 0.5 µM (MycN) [%],Compound
< 20,20 to 49,80 to 100,80 to 100,< 20,50 to 79,80 to 100,,"NC[C@@H]1CN(c2nccc(Nc3cc(C4CCCC4)[nH]n3)n2)C[C@@H]1F [Compound 123-1, 2-[(3R,4R)-3-(Aminomethyl)-4-fluoro-pyrrolidin-1-yl]-N-(5-cyclopentyl-1H-pyrazol-3-yl)pyrimidin-4-amine]"
20 to 49,80 to 100,80 to 100,80 to 100,20 to 49,20 to 49,80 to 100,< 20,"CNCC12CC(C1)N(c1nccc(Nc3cc(C4CC4)[nH]n3)n1)C2 [Compound 14, N-(5-cyclopropyl-1H-pyrazol-3-yl)-2-(4-((methylamino)methyl)-2-azabicyclo[2.1.1]hexan-2-yl)pyrimidin-4-amine]"
,,< 20,80 to 100,< 20,20 to 49,80 to 100,,"CN1CC2(CCN(c3nccc(Nc4cc(C5CC5)[nH]n4)n3)CC2)C1 [Compound 44, N-(5-Cyclopropyl-1H-pyrazol-3-yl)-2-(2-methyl-2,7-diazaspiro[3.5]nonan-7-yl)pyrimidin-4-amine]"
20 to 49,20 to 49,20 to 49,80 to 100,20 to 49,< 20,< 20,20 to 49,"CN(C)[C@H]1CCN(c2nccc(Nc3cc(C4CC4)[nH]n3)n2)C1 [Compound 9, (S)—N-(5-Cyclopropyl-1H-pyrazol-3-yl)-2-(3-(dimethylamino)pyrrolidin-1-yl)pyrimidin-4-amine]"
20 to 49,50 to 79,80 to 100,80 to 100,< 20,50 to 79,80 to 100,,"NC[C@H]1CN(c2nccc(Nc3cc(C4CC4)[nH]n3)n2)C[C@H]1F [Compound 122-2, 2-[(3S,4S)-3-(Aminomethyl)-4-fluoro-pyrrolidin-1-yl]-N-(5-cyclopropyl-1H-pyrazol-3-yl)pyrimidin-4-amine]"
80 to 100,80 to 100,80 to 100,80 to 100,80 to 100,80 to 100,80 to 100,80 to 100,"CNCC12CCC(C1)N(c1nccc(Nc3cc(C4CC4)[nH]n3)n1)C2 (stereo not drawn) [Compound 45, N-(5-Cyclopropyl-1H-pyrazol-3-yl)-2-[4-(methylaminomethyl)-2-azabicyclo[2.2.1]heptan-2-yl]pyrimidin-4-amine]"
< 20,< 20,80 to 100,80 to 100,50 to 79,50 to 79,80 to 100,20 to 49,"NC[C@@H]1CCCN(c2nccc(Nc3cc(C4CCCC4)[nH]n3)n2)C1 [Compound 109, 2-[(3S)-3-(Aminomethyl)-1-piperidyl]-N-(5-cyclopentyl-1H-pyrazol-3-yl)pyrimidin-4-amine]"
